Reference: article PMC4885109, “Rapid Discovery and Structure–Activity Relationships of Pyrazolopyrimidines That Potently Suppress Breast Cancer Cell Growth via SRC Kinase Inhibition with Exceptional Selectivity over ABL Kinase” (Journal of Medicinal Chemistry, 2016)
Like-named read-outs stand apart in the source and are kept apart here. One block for each molecule: values may come before it.

Columns and labels:
MCF7 cells [1] = assay: Dose-response viability assay (PrestoBlue), MCF7; format: cell-based; conditions: Homo sapiens, MCF7, 120 h; 5 d, PrestoBlue cell viability
SRC = SRC (Homo sapiens, UniProt P12931); assay: Kinase screening assay, 33P radioisotope (Reaction Biology)
MDA-MB-231 cells [2] = assay: Dose-response viability assay (PrestoBlue), MDA-MB-231; format: cell-based, human; conditions: for decrease in antiproliferative activity relative to 11a: MDA-MB-231
FGR = FGR (Homo sapiens, UniProt P09769); assay: Kinase screening assay, 33P radioisotope (Reaction Biology); format: biochemical
MCF7 cells [3] = assay: Time-lapse cell growth assay (IncuCyte ZOOM); format: cell-based, human; conditions: for antiproliferative mode of action by time-lapse imaging: 1–100 μM
physchem = conditions: pH 7.4
[4] = tested on: phospho-SRC^Y416 and phospho-FAK in MDA-MB-231 cells
CYP2D6 = CYP2D6 (Homo sapiens, UniProt P10635); conditions: 10 μM
in vitro [5] = conditions: human, cryopreserved pooled primary hepatocytes
CYP2C19 = CYP2C19 (Homo sapiens, UniProt P33261); conditions: 10 μM
CYP1A2 = biological target: T1, CYP1A2 (Homo sapiens, UniProt P05177); conditions: 10 μM
T1 sequence (P05177 1-516): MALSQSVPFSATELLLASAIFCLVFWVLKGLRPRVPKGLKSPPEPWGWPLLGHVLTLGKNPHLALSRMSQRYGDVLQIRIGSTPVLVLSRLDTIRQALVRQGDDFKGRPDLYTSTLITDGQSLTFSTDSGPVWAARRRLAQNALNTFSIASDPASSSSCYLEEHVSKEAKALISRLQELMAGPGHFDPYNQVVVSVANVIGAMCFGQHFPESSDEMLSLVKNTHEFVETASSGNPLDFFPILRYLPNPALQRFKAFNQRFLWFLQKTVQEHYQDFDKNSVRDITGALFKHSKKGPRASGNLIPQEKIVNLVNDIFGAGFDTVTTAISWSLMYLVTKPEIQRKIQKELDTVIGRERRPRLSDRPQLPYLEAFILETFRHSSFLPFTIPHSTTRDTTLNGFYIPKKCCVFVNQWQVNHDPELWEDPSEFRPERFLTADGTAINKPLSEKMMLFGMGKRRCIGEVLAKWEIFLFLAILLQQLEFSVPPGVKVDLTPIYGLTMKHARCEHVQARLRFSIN

MCF7 cells [6] = tested on: MCF7 cells
in vitro [7] = conditions: mouse, cryopreserved pooled primary hepatocytes
in vivo = conditions: female, CD1, mouse, blood/plasma, 10 mg/kg
CYP2C9 = CYP2C9 (Homo sapiens, UniProt P11712); conditions: 10 μM
CYP3A4 = CYP3A4 (Homo sapiens, UniProt P08684); conditions: 10 μM
BLK = BLK (Homo sapiens, UniProt P51451); assay: biochemical
HCK = HCK (Homo sapiens, UniProt P08631); assay: biochemical
LCK = LCK (Homo sapiens, UniProt P06239); assay: Kinase screening assay, 33P radioisotope (Reaction Biology); format: biochemical; conditions: recombinant kinase, 10 μM ATP
FRK/PTK5 = FRK/PTK5 (Homo sapiens, UniProt P42685); assay: biochemical
LYN = LYN (Homo sapiens, UniProt P07948); assay: biochemical
[8] = tested on: Tg(brn3c:mGFP) zebrafish embryos; format: in vivo; conditions: 1–10 μM (compatible with embryo survival)
[9] = cited from earlier work
[10] = cited from earlier work; for % F / Cmax / Tmax: PO
MDA-MB-231 cells [11] = assay: cells; conditions: Homo sapiens, MDA-MB-231, 24 h, read-out: IC50, MDA-MB-231 Cell Migration After 24h
[12] = human, rat, 24 h
ABL = ABL (Homo sapiens, UniProt P00519); assay: Kinase screening assay, 33P radioisotope (Reaction Biology)
[13] = tested on: SYF murine embryonic fibroblasts (SRC-/-, YES-/-, FYN-/-); assay: Dose-response proliferation study in SYF cells; format: cell-based, mouse; conditions: compared with dasatinib
[14] = recombinant kinase, 10 μM ATP, read-out: IC50 (FGR)
[15] = 5 mg/kg ref Kamath et al., 2008

HCK, sequence (P08631 whole entry): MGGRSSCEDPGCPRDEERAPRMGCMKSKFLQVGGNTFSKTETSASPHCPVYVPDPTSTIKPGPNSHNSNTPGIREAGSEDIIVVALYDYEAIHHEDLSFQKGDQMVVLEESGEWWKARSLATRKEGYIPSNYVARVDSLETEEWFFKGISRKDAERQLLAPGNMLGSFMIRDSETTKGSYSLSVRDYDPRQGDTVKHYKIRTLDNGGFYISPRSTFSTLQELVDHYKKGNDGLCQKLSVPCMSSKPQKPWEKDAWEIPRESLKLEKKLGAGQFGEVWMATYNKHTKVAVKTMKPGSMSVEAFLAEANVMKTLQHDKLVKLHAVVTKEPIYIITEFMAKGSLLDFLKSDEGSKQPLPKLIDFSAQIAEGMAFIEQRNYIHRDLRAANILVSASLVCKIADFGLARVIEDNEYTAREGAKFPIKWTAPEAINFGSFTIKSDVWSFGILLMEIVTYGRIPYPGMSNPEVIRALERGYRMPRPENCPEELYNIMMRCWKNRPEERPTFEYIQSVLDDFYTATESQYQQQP
LYN, sequence (P07948 whole entry): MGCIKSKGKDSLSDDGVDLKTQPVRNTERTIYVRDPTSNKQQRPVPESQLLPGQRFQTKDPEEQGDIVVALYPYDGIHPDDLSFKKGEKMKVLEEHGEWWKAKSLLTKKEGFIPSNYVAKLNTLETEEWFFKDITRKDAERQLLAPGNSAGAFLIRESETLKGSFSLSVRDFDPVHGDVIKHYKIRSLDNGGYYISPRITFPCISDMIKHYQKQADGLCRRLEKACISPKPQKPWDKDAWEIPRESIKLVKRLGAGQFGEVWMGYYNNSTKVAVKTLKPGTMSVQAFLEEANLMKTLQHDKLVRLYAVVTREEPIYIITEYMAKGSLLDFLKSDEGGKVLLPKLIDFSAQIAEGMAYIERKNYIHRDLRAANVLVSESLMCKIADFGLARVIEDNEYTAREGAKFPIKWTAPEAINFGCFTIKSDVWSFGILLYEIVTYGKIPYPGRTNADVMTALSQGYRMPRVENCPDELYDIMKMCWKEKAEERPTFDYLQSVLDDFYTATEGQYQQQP
FRK/PTK5, sequence (P42685 whole entry): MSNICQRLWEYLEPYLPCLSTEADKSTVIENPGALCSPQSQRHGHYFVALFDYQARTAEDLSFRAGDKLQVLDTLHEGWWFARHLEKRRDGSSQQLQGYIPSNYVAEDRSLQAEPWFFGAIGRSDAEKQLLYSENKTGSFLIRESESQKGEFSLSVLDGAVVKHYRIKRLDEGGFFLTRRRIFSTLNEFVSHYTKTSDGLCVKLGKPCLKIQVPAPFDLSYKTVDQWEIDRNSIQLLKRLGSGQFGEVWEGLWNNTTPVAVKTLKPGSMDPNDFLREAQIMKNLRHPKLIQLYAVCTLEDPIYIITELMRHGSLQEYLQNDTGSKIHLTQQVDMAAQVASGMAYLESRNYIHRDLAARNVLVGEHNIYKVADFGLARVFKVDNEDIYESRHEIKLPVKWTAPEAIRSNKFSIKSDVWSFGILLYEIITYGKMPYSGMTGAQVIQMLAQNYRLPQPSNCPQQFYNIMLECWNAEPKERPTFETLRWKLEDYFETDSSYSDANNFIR
LCK, sequence (P06239 whole entry): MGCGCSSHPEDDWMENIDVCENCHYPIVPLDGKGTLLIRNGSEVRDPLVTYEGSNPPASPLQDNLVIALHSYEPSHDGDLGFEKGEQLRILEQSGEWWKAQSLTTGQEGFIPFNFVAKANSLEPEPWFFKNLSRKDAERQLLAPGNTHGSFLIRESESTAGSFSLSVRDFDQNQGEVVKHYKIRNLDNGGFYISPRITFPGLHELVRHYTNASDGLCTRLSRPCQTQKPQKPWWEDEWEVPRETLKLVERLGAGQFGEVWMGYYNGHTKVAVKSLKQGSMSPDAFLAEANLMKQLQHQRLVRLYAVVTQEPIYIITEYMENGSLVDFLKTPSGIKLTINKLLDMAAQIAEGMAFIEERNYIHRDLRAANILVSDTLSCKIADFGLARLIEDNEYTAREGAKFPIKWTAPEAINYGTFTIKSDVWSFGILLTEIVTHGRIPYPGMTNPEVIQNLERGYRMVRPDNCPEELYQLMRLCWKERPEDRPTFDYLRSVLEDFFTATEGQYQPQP
FGR, sequence (P09769 whole entry): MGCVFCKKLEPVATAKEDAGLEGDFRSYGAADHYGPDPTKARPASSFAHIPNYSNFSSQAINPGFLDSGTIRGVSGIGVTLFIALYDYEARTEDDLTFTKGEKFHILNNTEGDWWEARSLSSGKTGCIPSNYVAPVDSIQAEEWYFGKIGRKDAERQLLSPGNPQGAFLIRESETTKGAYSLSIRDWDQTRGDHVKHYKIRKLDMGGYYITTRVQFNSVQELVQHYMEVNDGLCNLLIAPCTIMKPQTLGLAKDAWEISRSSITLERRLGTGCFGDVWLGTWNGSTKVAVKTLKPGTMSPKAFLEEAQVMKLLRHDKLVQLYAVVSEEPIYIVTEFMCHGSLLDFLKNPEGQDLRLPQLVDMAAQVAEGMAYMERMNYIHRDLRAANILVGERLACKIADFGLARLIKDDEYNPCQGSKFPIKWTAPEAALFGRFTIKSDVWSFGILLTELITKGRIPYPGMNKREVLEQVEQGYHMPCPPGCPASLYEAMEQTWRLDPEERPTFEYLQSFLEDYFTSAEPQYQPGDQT
BLK, sequence (P51451 whole entry): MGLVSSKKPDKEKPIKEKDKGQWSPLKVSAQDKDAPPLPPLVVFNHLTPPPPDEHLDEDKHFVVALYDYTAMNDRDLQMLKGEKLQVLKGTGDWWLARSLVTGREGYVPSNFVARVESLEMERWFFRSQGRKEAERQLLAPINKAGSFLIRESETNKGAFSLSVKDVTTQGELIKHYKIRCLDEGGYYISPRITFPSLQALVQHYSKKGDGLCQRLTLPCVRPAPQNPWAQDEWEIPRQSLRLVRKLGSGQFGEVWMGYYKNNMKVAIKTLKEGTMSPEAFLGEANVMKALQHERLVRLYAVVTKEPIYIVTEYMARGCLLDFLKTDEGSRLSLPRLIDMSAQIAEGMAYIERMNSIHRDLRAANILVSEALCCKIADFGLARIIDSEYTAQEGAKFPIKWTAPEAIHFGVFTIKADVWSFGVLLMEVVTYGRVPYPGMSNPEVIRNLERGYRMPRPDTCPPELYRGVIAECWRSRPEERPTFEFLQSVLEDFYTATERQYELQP
SRC, sequence (P12931 whole entry): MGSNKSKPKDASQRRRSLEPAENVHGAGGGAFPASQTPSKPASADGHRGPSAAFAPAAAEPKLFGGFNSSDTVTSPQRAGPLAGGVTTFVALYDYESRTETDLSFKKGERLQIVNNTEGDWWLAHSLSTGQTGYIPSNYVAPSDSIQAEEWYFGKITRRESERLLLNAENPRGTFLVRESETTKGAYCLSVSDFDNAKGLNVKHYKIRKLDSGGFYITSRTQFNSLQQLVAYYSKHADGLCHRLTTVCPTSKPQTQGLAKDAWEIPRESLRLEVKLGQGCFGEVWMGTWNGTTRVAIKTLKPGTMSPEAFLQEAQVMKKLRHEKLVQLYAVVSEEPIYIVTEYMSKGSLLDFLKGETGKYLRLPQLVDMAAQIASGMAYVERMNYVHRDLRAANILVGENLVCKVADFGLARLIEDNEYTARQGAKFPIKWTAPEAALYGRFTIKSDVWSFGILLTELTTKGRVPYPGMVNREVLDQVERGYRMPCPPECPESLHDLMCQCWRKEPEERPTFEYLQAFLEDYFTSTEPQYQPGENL
CYP3A4, sequence (P08684 whole entry): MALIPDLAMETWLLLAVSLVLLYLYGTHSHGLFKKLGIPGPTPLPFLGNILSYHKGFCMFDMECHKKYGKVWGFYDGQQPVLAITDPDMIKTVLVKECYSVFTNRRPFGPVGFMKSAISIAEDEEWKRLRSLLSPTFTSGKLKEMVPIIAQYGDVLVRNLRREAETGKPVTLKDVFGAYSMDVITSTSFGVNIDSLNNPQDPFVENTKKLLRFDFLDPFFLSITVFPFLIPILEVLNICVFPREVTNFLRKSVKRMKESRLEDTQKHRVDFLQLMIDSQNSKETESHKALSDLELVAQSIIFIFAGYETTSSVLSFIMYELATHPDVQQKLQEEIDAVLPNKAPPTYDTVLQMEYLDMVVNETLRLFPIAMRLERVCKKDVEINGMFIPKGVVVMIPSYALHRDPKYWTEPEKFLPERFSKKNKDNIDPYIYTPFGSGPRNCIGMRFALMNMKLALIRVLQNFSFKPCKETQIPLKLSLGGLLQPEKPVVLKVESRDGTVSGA
CYP2D6, sequence (P10635 whole entry): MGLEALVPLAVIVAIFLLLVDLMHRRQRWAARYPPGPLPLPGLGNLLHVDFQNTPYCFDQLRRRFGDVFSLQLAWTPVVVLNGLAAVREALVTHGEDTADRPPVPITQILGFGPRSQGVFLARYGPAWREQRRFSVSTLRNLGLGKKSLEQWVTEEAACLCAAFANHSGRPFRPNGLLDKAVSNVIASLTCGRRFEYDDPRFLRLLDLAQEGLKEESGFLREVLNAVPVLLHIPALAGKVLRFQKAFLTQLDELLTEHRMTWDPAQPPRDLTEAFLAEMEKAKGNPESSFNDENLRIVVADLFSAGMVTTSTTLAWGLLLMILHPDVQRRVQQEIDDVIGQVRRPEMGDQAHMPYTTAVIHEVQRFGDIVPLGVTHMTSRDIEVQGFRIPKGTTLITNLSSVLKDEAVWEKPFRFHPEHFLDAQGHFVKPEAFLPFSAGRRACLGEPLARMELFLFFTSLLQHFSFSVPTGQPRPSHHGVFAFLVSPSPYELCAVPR

Compound: Cc1ccc(-c2nn(CCN3CCN(C)CC3)c3ncnc(N)c23)cc1 [7d]
cell proliferation (% confluence over time) (MCF7 cells [3]; single dose 100 μM, 5 d, time-lapse imaging): strong inhibition of cell proliferation

Compound: COc1cc(-c2nn(CCN3CCC(N(C)C)CC3)c3ncnc(N)c23)ccc1NC(=O)OC(C)(C)C [11a, tert-Butyl N-[4-[4-amino-1-[2-[4-(dimethylamino)-1-piperidyl]ethyl]pyrazolo[3,4-d]pyrimidin-3-yl]-2-methoxy-phenyl]carbamate]
solubility (physchem): > 100 mg/mL | concentration with complete inhibition of phosphorylation of SRC and FAK [4]: 100 nM | inhibition of CYP2D6 (CYP2D6): ≤ 0% | hepatocyte CLint at 3 µM (in vitro [5]): 1.84 µL/min/1e6 cells | inhibition of CYP2C19 (CYP2C19): ≤ 0% | inhibition of CYP1A2 (CYP1A2): 24.54% | concentration giving significant apoptotic cell death (caspase 3/7 activity) (MCF7 cells [6]): ≥ 100 nM | half-life at 3 µM (in vitro [7]): 1.83 h | hepatocyte CLint at 3 µM (in vitro [7]): 12.5 µL/min/1e6 cells | AUC (in vivo; iv): 2070 ng·h/mL | clearance (in vivo; iv): 72.3 mL/min/kg | AUC (in vivo; po): 530 ng·h/mL | Cmax (in vivo; po): 100 ng/mL | Tmax (in vivo; po): 2 h | inhibition of CYP2C9 (CYP2C9): ≤ 0% | inhibition of CYP3A4 (CYP3A4): ≤ 0%

Compound: Cc1ccc(-c2nn(CCN3CCC(CN(C)C)CC3)c3ncnc(N)c23)cc1 [7j]
IC50 (BLK): 2850 nM | IC50 (HCK): 6010 nM | IC50 (LCK): 1540 nM | IC50 (FRK/PTK5): 1630 nM | IC50 (LYN): 1070 nM

Compound: CN(C)C1CCN(CCn2nc(-c3ccc(NC(=O)OC(C)(C)C)nc3)c3c(N)ncnc32)CC1 [12u]
EC50 (MDA-MB-231 cells [2]; read-out: EC50 (MDA-MB-231), 5 d, PrestoBlue cell viability): 16700 nM

Compound: COc1cc(-c2ccn(CCN3CCC(N(C)C)CC3)n2)ccc1NC(=O)OC(C)(C)C [12f]
decrease in antiproliferative activity relative to 11a (MDA-MB-231 cells [2]): > 3000 fold

Compound: CCOC(Cn1nc(-c2cnc3[nH]ccc3c2)c2c(N)ncnc21)OCC [8d, 1-(2,2-Diethoxyethyl)-3-(1H-pyrrolo[2,3-b]pyridin-5-yl)pyrazolo[3,4-d]pyrimidin-4-amine]
IC50 (FGR; [14]): 2130 nM | IC50 (HCK): 6770 nM | IC50 (LCK): 8610 nM | antiproliferative mode of action by time-lapse imaging (MCF7 cells [3]): halted cell division | IC50 (FRK/PTK5): 2690 nM | IC50 (LYN): 2310 nM

Compound: Cc1nc(Nc2ncc(C(=O)Nc3c(C)cccc3Cl)s2)cc(N2CCN(CCO)CC2)n1.O [dasatinib]
neuromast migration [8]: did not inhibit the migration of neuromasts | solubility in water ([9]; pH = 2.6 ref 56): 18 mg/mL | solubility in water ([9]; pH = 7 ref 56): < 0.001 mg/mL | T1/2 ([10]; IV, 10 mg/kg, mice ref Kamath et al., 2008 (58)): 0.9 h | CL ([10]; IV, 10 mg/kg, mice ref Kamath et al., 2008): 61.7 mL/min/kg | % F [10, 15]: 17% | Cmax [10, 15]: 104 ng/mL | Tmax [10, 15]: 2 h | % F ([10]; 5 mg/kg ref Luo et al., 2006): 45% | Cmax ([10]; 5 mg/kg ref Luo et al., 2006): 58 ng/mL | Tmax ([10]; 5 mg/kg ref Luo et al., 2006): 1 h | IC50 (MDA-MB-231 cells [11]): 8.4 nM

Compound: CN(C)CC1CCN(CCn2nc(-c3cnc4[nH]ccc4c3)c3c(N)ncnc32)CC1 [9d, 1-[2-[4-(Dimethylaminomethyl)-1-piperidyl]ethyl]-3-(1H-pyrrolo[2,3-b]pyridin-5-yl)pyrazolo[3,4-d]pyrimidin-4-amine]
antiproliferative mode of action by time-lapse imaging (MCF7 cells [3]): induced cell death

Compound: Cc1ccc(-c2nn(CCN3CCC(CCN(C)C)CC3)c3ncnc(N)c23)cc1 [7k]
IC50 (FGR; [14]): 601 nM | IC50 (HCK): 11600 nM | IC50 (LCK): 4340 nM | IC50 (FRK/PTK5): 3700 nM | IC50 (LYN): 2510 nM

Compound: COc1cc(-c2nn(CCN3CCC(CN(C)C)CC3)c3ncnc(N)c23)ccc1NC(=O)OC(C)(C)C [11b]
IC50 (ABL): 189 nM | antiproliferative activity in SYF cells [13]: significantly less antiproliferative activity in SYF cells than dasatinib

Compound: COc1cc(-c2nn(CCN3CCC(N(C)C)CC3)c3ncnc(N)c23)ccc1N [12g]
EC50 (MCF7 cells [1]): 4930 nM

The next lines start with results.

EC50 (MCF7 cells [1]): 7040 nM
Compound: COc1cc(-c2nn(CCN3CCC(N(C)C)CC3)c3ncnc(N)c23)ccc1NC(=O)CCc1ccccc1 [12k, N-[4-[4-amino-1-[2-[4-(dimethylamino)-1-piperidyl]ethyl]pyrazolo[3,4-d]pyrimidin-3-yl]-2-methoxy-phenyl]-3-phenyl-propanamide]

decrease in SRC inhibitory activity relative to 11a (SRC): > 200 fold
Compound: CN(C)C1CCN(CCn2nc(-c3ccc(NC(=O)OC(C)(C)C)c(O)c3)c3c(N)ncnc32)CC1 [12s]
decrease in antiproliferative activity relative to 11a (MDA-MB-231 cells [2]): > 200 fold

IC50 (FGR): 7.6 nM
Compound: Cc1ccc(-c2nn(C(C)(C)C)c3ncnc(N)c23)cc1 [PP1, reference compound]

EC50 (MCF7 cells [1]): 48800 nM
Compound: Cc1ccc(-c2nn(CCN3CCCCC3)c3ncnc(N)c23)cc1 [7a]

plasma protein bound [12]: 99–100%
Compound: CC(=O)CC(c1ccccc1)c1c(O)c2ccccc2oc1=O (stereo not drawn) [Warfarin]

IC50 (BLK): 1540 nM | IC50 (HCK): 1520 nM
Compound: Cc1ccc(-c2nn(CCN3CCC(N(C)C)CC3)c3ncnc(N)c23)cc1 [7i]

half-life at 3 µM (in vitro [5]): 9.7 min | hepatocyte CLint at 3 µM (in vitro [5]): 150 µL/min/1e6 cells | half-life at 3 µM (in vitro [7]): 0.0233 h | hepatocyte CLint at 3 µM (in vitro [7]): 983 µL/min/1e6 cells
Compound: O=c1ccc2ccc(O)cc2o1 [umbelliferone, reference compound]
